Assay results from publication PMC9352670 (2022).

Columns and labels:
[1] = system: Dm-HS-1 TGA ∆ s.c. (DNA, aptamer, as Dm-HS-1 but no side-chain at 34: fluorophenyl at 19; allylamine at 22,25,37; alcohol at 28,49; phenol at 31,46; cyclopentyl at 40; cyclopropyl at 43,58; imidazole at 52,55,61) GAAAGCAGGACTGGAGATCGATTCTGGTGCTGTTGATCTCCGCCATTGTGCTCCTACCCTTCACAGACCGAACTAGAGCTT; experiment: microscale thermophoresis; conditions: 5 mM KCl, 1 mM MgCl2, 1 mM CaCl2 added; HBS-P+ buffer, 25 °C
[2] = system: Dm-HS-2 ∆ s.c. (DNA, aptamer, none (no side-chains)) GAAAGCAGGACTGGAGATCTATGGTCGCATCGTTGACCCTTGTCCTGCCCCTGTCTCTCTCAACAGACCGAACTAGAGCTT; experiment: microscale thermophoresis; conditions: 5 mM KCl, 1 mM MgCl2, 1 mM CaCl2 added; HBS-P+ buffer, 25 °C
[3] = system: Dm-HS-1 (DNA, aptamer, HFNAP, side-chains on nucleobases: fluorophenyl at 19; allylamine at 22, 25, 37; alcohol at 28, 34, 49; phenol at 31, 46; cyclopentyl at 40; cyclopropyl at 43, 58; imidazole at 52, 55, 61) GAAAGCAGGACTGGAGATCGATTCTGGTGCTGTTGATCTCCGCCATTGTGCTCCTACCCTTCACAGACCGAACTAGAGCTT; experiment: gel filtration, radiolabelled ligand; conditions: 140 mM NaCl, 5 mM KCl, 1 mM MgCl2, 1 mM CaCl2; 20 mM Tris-HCl pH 7.4, 0.05% Tween 20, 25 °C; [3H]-daunomycin mixed with unlabelled; control sequence subtracted
[4] = system: Dm-HS-3 (DNA, aptamer, HFNAP: side-chain on 5' nucleobase of each coding trinucleotide, positions 19,22,25,...,61 (codon key Figure 1B)) GAAAGCAGGACTGGAGATCGATTATTGTGATTTTGATCTCCTCCATATCCCCTTCCCTACTCGCAGACCGAACTAGAGCTT; experiment: microscale thermophoresis; conditions: 5 mM KCl, 1 mM MgCl2, 1 mM CaCl2 added; HBS-P+ buffer, 25 °C
[5] = system: Dm-LS-1 (DNA, aptamer, HFNAP: side-chain on 5' nucleobase of each coding trinucleotide, positions 19,22,25,...,61 (codon key Figure 1B)) GAAAGCAGGACTGGAGATCCGCGCCGCTTTTATCCCTAGTCCCTTTTACCCTACTTCCCCTTACAGACCGAACTAGAGCTT; experiment: microscale thermophoresis; conditions: 5 mM KCl, 1 mM MgCl2, 1 mM CaCl2 added; HBS-P+ buffer, 25 °C
[6] = system: Dm-CVAE-without-selection-2 (DNA, aptamer, HFNAP: side-chain on 5' nucleobase of each coding trinucleotide, positions 19,22,25,...,61 (codon key Figure 1B)) GAAAGCAGGACTGGAGATTCGTTACCGCTGTTGCTCTCTTCTCAGTTGTGCTCCTTTTCCCCCCAGACCGAACTAGAGCTT; experiment: microscale thermophoresis; conditions: 5 mM KCl, 1 mM MgCl2, 1 mM CaCl2 added; HBS-P+ buffer, 25 °C
[7] = system: Dm-HS-1 CCG ∆ s.c. (DNA, aptamer, no side-chain at 40 (codon 8 CCG); others as HFNAP: fluorophenyl at 19; allylamine at 22, 25, 37; alcohol at 28, 34, 49; phenol at 31, 46; cyclopropyl at 43, 58; imidazole at 52, 55, 61) GAAAGCAGGACTGGAGATCGATTCTGGTGCTGTTGATCTCCGCCATTGTGCTCCTACCCTTCACAGACCGAACTAGAGCTT; experiment: microscale thermophoresis; conditions: 5 mM KCl, 1 mM MgCl2, 1 mM CaCl2 added to HBS-P+; HBS-P+ buffer, 25 °C
[8] = system: Dm-HS-4 ∆ s.c. (DNA, aptamer, none (no side-chains)) GAAAGCAGGACTGGAGATCGATTCTGGTGCTGTTGATCTCCGCCATTGTGCTCCTACCCTTCGCAGACCGAACTAGAGCTT; experiment: microscale thermophoresis; conditions: 5 mM KCl, 1 mM MgCl2, 1 mM CaCl2 added; HBS-P+ buffer, 25 °C
[9] = system: Dm-HS-7 ∆ s.c. (DNA, aptamer, none (no side-chains)) GAAAGCAGGACTGGAGATCGATTGCAGTTACGTTGCTAGTCCCCTTGATCACCTCCGTCACCTCAGACCGAACTAGAGCTT; experiment: microscale thermophoresis; conditions: 5 mM KCl, 1 mM MgCl2, 1 mM CaCl2 added; HBS-P+ buffer, 25 °C
[10] = system: Dm-CCS-3 (DNA, aptamer, HFNAP: side-chain on 5' nucleobase of each coding trinucleotide, positions 19,22,25,...,61 (codon key Figure 1B)) GAAAGCAGGACTGGAGATTTACATCCCCTCCAGTCGTGCCCCCTACCTTGCTGCTCGTCATGGCAGACCGAACTAGAGCTT; experiment: microscale thermophoresis; conditions: 5 mM KCl, 1 mM MgCl2, 1 mM CaCl2 added; HBS-P+ buffer, 25 °C
[11] = system: Dm-HS-1 CCA ∆ s.c. (DNA, aptamer, as Dm-HS-1 but no side-chain at 43: fluorophenyl at 19; allylamine at 22,25,37; alcohol at 28,34,49; phenol at 31,46; cyclopentyl at 40; cyclopropyl at 58; imidazole at 52,55,61) GAAAGCAGGACTGGAGATCGATTCTGGTGCTGTTGATCTCCGCCATTGTGCTCCTACCCTTCACAGACCGAACTAGAGCTT; experiment: microscale thermophoresis; conditions: 5 mM KCl, 1 mM MgCl2, 1 mM CaCl2 added; HBS-P+ buffer, 25 °C
[12] = system: Dm-HS-1 TCA ∆ s.c. (DNA, aptamer, no side-chain at 61 (codon 15 TCA); others as HFNAP: fluorophenyl at 19; allylamine at 22, 25, 37; alcohol at 28, 34, 49; phenol at 31, 46; cyclopentyl at 40; cyclopropyl at 43, 58; imidazole at 52, 55) GAAAGCAGGACTGGAGATCGATTCTGGTGCTGTTGATCTCCGCCATTGTGCTCCTACCCTTCACAGACCGAACTAGAGCTT; experiment: microscale thermophoresis; conditions: 5 mM KCl, 1 mM MgCl2, 1 mM CaCl2 added to HBS-P+; HBS-P+ buffer, 25 °C
[13] = system: Dm-CCS-1 (DNA, aptamer, HFNAP: side-chain on 5' nucleobase of each coding trinucleotide, positions 19,22,25,...,61 (codon key Figure 1B)) GAAAGCAGGACTGGAGATCCTTAATGGCAGCTCCAGCCCTAACCCTGCTGCTGCCTCTGCTGTCAGACCGAACTAGAGCTT; experiment: microscale thermophoresis; conditions: 5 mM KCl, 1 mM MgCl2, 1 mM CaCl2 added; HBS-P+ buffer, 25 °C

## COc1cccc2c1C(=O)c1c(O)c3c(c(O)c1C2=O)C[C@@](O)(C(C)=O)C[C@@H]3O[C@H]1C[C@H](N)[C@H](O)[C@H](C)O1
[1]
  Kd: 46.8 ± 4.8 nM
[2]
  Kd ∆ side-chains: 1700 ± 170 nM
[3]
  Kd: 12.6 ± 3.5 nM
[4]
  Kd: 4.78 ± 0.95 nM
[5]
  Kd: 1110 ± 60 nM
[6]
  Kd: 15.5 ± 1.3 nM
[7]
  Kd: 21.9 ± 2.6 nM
[8]
  Kd ∆ side-chains: 1810 ± 57 nM
[9]
  Kd ∆ side-chains: 2490 ± 120 nM
[10]
  Kd: 26.4 ± 6.9 nM
[11]
  Kd: 158.8 ± 14.2 nM
[12]
  Kd: 10.1 ± 1.6 nM
[13]
  Kd: 16.7 ± 6.0 nM
